Data on ten molecules can be found in US20250248998A1, “LRRK2 Inhibitors” (Brenig Therapeutics, Inc., priority 2022, published 2025).

Data set [1] in a line: A549 cytotoxicity assay (CellTiter-Glo). In kind it is cell-based. To be noted: human, A549 cells, 3 days of incubation. As for the experimental part:
Example D. A549 Cytotoxicity Assay Used to Determine Safety of the LRRK2 Inhibitors
A549 (ATCC, CCL-185) cells were seeded at a density of 4000 cells per well in a 384-well clear bottom plate (Greiner Cat #781090) in 45 μL total volume of the complete cell culture medium DMEM (PanEco, Cat #C420, Russia) with 10% FBS (HyClone Cat #SV30160.03). The cells were allowed to adhere overnight at 37° C., 5% CO2. The 500× compounds solutions in DMSO (Sigma Cat #D2650) were prepared in the compounds plate (Diamond Well Plate, Axigen, Cat #P-384-120SQ-C-S) and DMSO as a vehicle control was included. The 1 μL aliquot of 500× compounds (Compounds plate) was added to the 49 μL culture medium in the Dilution plate (Diamond Well Plate, Axigen, Cat #P-384-120SQ-C-S), mixed and then the 5 μL aliquots of the 10× compounds solutions was transferred to cells followed by centrifugation at 100 g for 1 min. Final DMSO concentration was 0.2%. After 3 days of incubation the 10 μL per well of CellTiter-Glo (Promega, CAT #G7572) was added to the cells, plate was centrifuged at 100 g for 1 min. The luminescence signal was detected with CLARIOstar Plus (BMG LABTECH) microplate reader.
(In general: In ATP-based viability assays light output follows the ATP content of the culture.)

The target in data set [2] is T1, LRRK2 WT (Homo sapiens, UniProt Q5S007). Briefly: Enzymatic activity inhibition against LRRK2 WT (ADP-Glo kinase assay, LRRKtide substrate). In kind it is biochemical. Also noted: purchased SignalChem Biotech, Inc. L10-11G-10. Conditions: recombinant LRRK2 WT 36 nM, ATP, 1 h at rt, average Ki. As for the experimental part: Example B. Primary Assays Used to Determine Potency of the LRRK2 Inhibition
Assay for Determining Enzymatic Activity Inhibition Against LRRK2 WT.
Compound activity was determined using recombinant LRRK2 WT protein (SignalChem Biotech, Inc., Cat #L10-11G-10) and LRRKtide substrate (SignalChem Biotech, Inc., Cat #L10-58) in an in vitro enzymatic reaction. The enzymatic reaction was carried out in assay buffer (40 mM TRIS-HCl pH 7.4, 20 mM MgCl2, 0.05 mM DTT, 0.1 mg/mL BSA). The compounds were dispensed into a 384 well Diamond Well Plate (Axigen, Cat #P-384-120SQ-C-S) using the Biomek FX liquid handling system at 80× solutions of compounds in DMSO. The 2× Protein-Substrate mix (final concentration 36 nM of LRRK2 WT and 0.8 μg/μL of LRRKtide) was prepared in the 1× Assay buffer and 4 μL of mixture per well was added into the 384-well white Reaction plate with NBS (Corning, Cat #CLS4513). The 4 μL of LRRKtide substrate w/o LRRK2 WT in the 1× buffer was used for a negative control. Plates were centrifuged for 1 min at 200 g. Next the compounds were added to Reaction plate using Biomek station via following steps: 1 μL of 80× compounds (in DMSO) were mixed thoroughly with 39 μL of 2×10 μM ATP in Assay Buffer, then 4 μL of this mixture was added to Reaction plate with 4 μL of Protein-Substrate mix. Plates were centrifuged for 1 min at 200 g and incubated for 1 hour at rt. Then, 4 μL per well of ADP-Glo reagent (Promega, ADP-Glo™ Kinase Assay, Cat #V9102) was added. Plates were incubated for 30 minutes at rt. Then, 8 μL per well of Kinase detection reagent (Promega, ADP-Glo™ Kinase Assay, Cat #V9102) was added and the luminescence signal was measured with a microplate reader. The % inhibition was then used to calculate the Ki values. The average Ki values are shown in Table B, wherein “A” corresponds to Ki<10.0 nM, “B” corresponds to 10.0 nM K Ki<20.0 nM, “C” 20.0 nM K Ki<50.0 nM, “D” corresponds to 50.0 nM K Ki<100.0 nM and “E” corresponds to Ki>100.0 nM.
In general terms: ADP-Glo turns the ADP formed in a reaction into a luminescent signal.
Target sequence in this assay (Q5S007 970-2527 limits assumed): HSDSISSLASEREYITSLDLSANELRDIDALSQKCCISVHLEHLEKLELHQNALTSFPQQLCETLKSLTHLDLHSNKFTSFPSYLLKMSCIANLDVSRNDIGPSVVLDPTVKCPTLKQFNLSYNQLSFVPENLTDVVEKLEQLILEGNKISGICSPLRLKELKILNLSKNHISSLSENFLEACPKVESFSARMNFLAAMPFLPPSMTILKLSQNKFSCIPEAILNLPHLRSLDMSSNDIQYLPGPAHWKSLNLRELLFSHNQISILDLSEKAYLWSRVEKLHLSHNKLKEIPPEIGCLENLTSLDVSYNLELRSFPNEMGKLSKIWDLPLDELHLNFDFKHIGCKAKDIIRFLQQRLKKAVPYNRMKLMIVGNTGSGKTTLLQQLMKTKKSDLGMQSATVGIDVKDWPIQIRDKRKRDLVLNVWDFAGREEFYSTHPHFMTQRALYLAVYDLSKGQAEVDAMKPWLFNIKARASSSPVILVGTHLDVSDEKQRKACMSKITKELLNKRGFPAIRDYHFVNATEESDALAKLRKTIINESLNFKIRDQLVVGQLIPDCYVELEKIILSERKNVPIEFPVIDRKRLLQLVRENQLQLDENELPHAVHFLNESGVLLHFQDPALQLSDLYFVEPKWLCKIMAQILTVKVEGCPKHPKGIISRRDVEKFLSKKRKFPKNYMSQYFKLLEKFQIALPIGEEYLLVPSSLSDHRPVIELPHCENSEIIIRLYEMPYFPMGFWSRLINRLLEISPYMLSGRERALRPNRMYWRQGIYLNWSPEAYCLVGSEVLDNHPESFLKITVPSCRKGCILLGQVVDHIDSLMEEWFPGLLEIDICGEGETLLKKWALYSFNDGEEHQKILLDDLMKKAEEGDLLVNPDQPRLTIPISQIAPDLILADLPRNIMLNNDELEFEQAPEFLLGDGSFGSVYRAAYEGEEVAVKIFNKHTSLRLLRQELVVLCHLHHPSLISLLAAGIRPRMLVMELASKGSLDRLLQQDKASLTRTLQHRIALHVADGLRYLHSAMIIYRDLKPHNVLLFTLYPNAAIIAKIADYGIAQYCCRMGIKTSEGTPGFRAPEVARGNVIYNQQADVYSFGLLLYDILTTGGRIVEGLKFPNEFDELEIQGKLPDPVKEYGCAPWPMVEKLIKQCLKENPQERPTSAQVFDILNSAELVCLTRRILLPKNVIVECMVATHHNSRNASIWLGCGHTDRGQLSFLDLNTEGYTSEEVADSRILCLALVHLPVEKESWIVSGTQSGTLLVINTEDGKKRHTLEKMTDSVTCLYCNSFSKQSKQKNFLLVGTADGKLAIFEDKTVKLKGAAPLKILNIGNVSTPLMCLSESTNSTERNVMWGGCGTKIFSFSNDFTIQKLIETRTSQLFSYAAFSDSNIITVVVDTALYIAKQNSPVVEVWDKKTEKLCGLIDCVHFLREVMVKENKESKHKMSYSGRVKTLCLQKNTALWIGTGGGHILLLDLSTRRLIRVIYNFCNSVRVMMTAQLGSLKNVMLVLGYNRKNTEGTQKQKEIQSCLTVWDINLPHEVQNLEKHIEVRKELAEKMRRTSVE

Data set [3] concerns the target T2, LRRK2[G2019S] (Homo sapiens, UniProt Q5S007, G2019S). The experiment in a line: Enzymatic activity inhibition against LRRK2[G2019S] (ADP-Glo kinase assay, LRRKtide substrate). In kind it is biochemical. The arrangement: purchased SignalChem Biotech, Inc. L10-12GG-10. To be noted: recombinant LRRK2[G2019S] 36 nM, ATP, 1 h at rt, average Ki. The protocol: Example A. Primary Assays Used to Determine Potency of the LRRK2 Inhibition
Assay for Determining Enzymatic Activity Inhibition Against LRRK2[G2019S].
Compound activity was determined using recombinant LRRK2[G2019S] protein (SignalChem Biotech, Inc., Cat #L10-12GG-10) and LRRKtide substrate (SignalChem Biotech, Inc., Cat #L10-58) in an in vitro enzymatic reaction. The enzymatic reaction was carried out in assay buffer (40 mM TRIS-HCl pH 7.4, 20 mM MgCl2, 0.05 mM DTT, 0.1 mg/mL BSA). The compounds were dispensed into a 384 well Diamond Well Plate (Axigen, Cat #P-384-120SQ-C-S) using the Biomek FX liquid handling system at the 80× solutions of compounds in DMSO. The 2× Protein-Substrate mix (final concentration 36 nM of LRRK2[G2019S] and 0.8 μg/μL of LRRKtide) was prepared in 1× Assay buffer and 4 μL of mixture per well was added into the 384-well white Reaction plate with NBS (Corning, Cat #CLS4513). The 4 μL of LRRKtide substrate w/o LRRK2[G2019S] in the 1× buffer was used for a negative control. Plates were centrifuged for 1 min at 200 g. Next the compounds were added to the reaction plate using Biomek station via following steps: 1 μL of 80× compounds (in DMSO) were mixed thoroughly with 39 μL of 2×10 μM ATP in Assay Buffer, then 4 μL of this mixture was added to Reaction plate with 4 μL of Protein-Substrate mix. Plates were centrifuged for 1 min at 200 g and incubated for 1 h at rt. Then, 4 μL per well of ADP-Glo reagent (Promega, ADP-Glo™ Kinase Assay, Cat #V9102) was added. Plates were incubated for 30 min at rt. Then, 8 μL per well of Kinase detection reagent (Promega, ADP-Glo™ Kinase Assay, Cat #V9102) was added and the luminescence signal was measured with a microplate reader. The luminescence signal was detected with CLARIOstar Plus (BMG LABTECH) microplate reader. The % inhibition was then used to calculate the Ki values. The average Ki values are shown in Table A, wherein “A” corresponds to Ki<5.0 nM, “B” corresponds to 5.0 nM≤Ki<10.0 nM, “C” 10.0 nM≤Ki<50.0 nM, “D” corresponds to 50.0 nM≤Ki<100.0 nM and “E” corresponds to Ki>100.0 nM.
Target sequence in this assay (Q5S007 970-2527 G2019S limits assumed): as the sequence (Q5S007 970-2527 limits assumed) above, with G1050S counted along it

In data set [4] the target is T1, LRRK2 WT. Briefly: Cell-based NanoBRET target engagement assay in HEK293 cells transfected with LRRK2 WT-NanoLuc fusion vector. The arrangement: expressed in transfected cells; host or cells: HEK293 (ATCC). To be noted: compound treatment 1 h. The method, boiled down:
(§1)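 HEK293 cells transiently transfected with NanoLuc-fused LRRK2 WT or G2019S (1 μg) plus carrier DNA, treated 1 h with compound (10-dose, 3-fold dilution from 1 μM). Target engagement read by NanoBRET; IC50 fitted only when signal at top concentration was below 5500.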
Target sequence in this assay (Q5S007 whole entry): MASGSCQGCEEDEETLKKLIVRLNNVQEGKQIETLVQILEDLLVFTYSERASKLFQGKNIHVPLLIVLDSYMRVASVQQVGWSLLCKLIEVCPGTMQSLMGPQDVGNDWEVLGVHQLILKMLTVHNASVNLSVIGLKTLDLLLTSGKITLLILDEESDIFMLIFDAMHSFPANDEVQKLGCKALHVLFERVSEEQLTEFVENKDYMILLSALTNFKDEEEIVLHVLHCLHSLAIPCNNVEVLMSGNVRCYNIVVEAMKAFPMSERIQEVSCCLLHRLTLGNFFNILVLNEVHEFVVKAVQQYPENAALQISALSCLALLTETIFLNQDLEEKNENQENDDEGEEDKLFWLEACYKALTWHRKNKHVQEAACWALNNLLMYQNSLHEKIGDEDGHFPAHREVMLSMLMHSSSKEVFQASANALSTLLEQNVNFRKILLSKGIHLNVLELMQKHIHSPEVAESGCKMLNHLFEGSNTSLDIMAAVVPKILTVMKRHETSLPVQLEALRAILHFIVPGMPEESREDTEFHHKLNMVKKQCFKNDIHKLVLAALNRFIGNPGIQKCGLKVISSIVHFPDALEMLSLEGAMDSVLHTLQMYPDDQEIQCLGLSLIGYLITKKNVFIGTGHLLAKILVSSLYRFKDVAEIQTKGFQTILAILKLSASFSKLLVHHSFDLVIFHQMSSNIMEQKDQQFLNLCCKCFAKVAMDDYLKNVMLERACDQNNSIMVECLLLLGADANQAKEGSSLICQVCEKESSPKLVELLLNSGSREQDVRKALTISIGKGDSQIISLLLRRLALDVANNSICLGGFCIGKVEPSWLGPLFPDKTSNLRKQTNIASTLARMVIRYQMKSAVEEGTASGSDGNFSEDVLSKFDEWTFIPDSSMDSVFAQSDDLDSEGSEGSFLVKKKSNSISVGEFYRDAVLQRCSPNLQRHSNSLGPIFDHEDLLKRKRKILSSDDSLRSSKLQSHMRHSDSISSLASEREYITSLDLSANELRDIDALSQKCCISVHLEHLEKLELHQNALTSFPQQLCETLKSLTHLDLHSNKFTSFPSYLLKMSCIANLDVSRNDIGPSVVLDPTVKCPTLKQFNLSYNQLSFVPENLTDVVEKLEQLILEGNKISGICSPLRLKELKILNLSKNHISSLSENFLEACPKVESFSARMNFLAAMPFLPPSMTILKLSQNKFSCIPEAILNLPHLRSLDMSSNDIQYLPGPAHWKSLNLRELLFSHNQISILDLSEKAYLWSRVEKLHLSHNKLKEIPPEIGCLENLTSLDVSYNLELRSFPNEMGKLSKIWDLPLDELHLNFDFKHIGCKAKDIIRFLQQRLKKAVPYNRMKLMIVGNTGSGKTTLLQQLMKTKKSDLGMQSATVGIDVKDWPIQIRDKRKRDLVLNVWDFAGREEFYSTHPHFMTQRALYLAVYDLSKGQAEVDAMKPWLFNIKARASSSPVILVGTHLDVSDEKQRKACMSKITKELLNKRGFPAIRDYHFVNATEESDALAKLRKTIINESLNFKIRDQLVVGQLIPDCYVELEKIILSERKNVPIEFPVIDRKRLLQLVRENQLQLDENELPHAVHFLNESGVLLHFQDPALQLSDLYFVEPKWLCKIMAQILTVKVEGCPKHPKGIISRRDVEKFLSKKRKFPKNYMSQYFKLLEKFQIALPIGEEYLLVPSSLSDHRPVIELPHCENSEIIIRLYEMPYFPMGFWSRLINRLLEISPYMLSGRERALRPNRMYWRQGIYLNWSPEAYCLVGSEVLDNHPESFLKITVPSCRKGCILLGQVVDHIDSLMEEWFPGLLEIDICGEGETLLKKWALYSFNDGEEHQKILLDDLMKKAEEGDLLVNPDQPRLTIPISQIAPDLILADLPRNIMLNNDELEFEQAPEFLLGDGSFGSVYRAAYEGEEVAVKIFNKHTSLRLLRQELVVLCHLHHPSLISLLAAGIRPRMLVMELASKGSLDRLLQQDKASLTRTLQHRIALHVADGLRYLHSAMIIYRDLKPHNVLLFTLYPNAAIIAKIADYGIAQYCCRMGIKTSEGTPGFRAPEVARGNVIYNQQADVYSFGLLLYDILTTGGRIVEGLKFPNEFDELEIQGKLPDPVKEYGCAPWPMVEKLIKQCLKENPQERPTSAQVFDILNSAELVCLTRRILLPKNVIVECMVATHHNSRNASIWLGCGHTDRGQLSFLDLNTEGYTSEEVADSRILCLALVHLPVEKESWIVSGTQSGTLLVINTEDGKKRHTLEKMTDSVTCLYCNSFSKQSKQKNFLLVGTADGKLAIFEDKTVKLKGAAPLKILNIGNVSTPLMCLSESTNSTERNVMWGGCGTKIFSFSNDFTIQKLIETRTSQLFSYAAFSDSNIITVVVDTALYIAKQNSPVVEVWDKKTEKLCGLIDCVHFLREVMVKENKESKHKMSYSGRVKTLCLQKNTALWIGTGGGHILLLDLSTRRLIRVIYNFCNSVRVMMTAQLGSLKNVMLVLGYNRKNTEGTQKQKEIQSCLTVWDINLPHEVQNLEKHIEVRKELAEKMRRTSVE

Data set [5] addresses T2, LRRK2[G2019S]. Briefly: Cell-based NanoBRET target engagement assay in HEK293 cells transfected with LRRK2 (G2019S)-NanoLuc fusion vector. The arrangement: expressed in transfected cells; host or cells: HEK293 (ATCC). To be noted: compound treatment 1 h. The procedure, abridged:
as §1
Target sequence in this assay (Q5S007 whole entry G2019S): as the sequence (Q5S007 whole entry) above, with G2019S counted along it
In general terms: Bioluminescence resonance energy transfer reports proximity on the nanometre scale.

Broadly, the CC50 is the concentration at which the toxic effect on the cells reaches its halfway point. A low value points to greater toxicity to the cells. Usually Ki stands for a measure of affinity in units of concentration, obtained from inhibition or displacement. The term IC50 denotes the point on the concentration scale where inhibition reaches its midpoint. Low readings indicate greater potency in that assay, high ones weaker potency in that assay. Take `C[C@@H]1CN(c2cc(-c3n[nH]c4ccc(OC5(C)CC5)cc34)nn(C)c2=O)C[C@H](C)O1` [Compound 50, 4-[(2S,6R)-2,6-dimethylmorpholin-4-yl]-2-methyl-6-[5-(1-methylcyclopropoxy)-1H-indazol-3-yl]pyridazin-3-one]: the cytotoxic concentration (CC50) at 3 days in data set [1] was > 10000 nM. The values for the Ki at LRRK2 WT [2] and at LRRK2[G2019S] [3] were ≤ 10 nM and ≤ 5 nM, respectively. The IC50 against LRRK2 WT [4] and against LRRK2[G2019S] [5] was ≤ 50 nM throughout.

Take `Cn1nc(-c2n[nH]c3ccc(OC4(C)CC4)cc23)cc(N2CCCC(F)(F)C2)c1=O` [Compound 54, 4-(3,3-difluoro-1-piperidyl)-2-methyl-6-[5-(1-methylcyclopropoxy)-1H-indazol-3-yl]pyridazin-3-one]: the CC50 at 3 days in data set [1] was > 10000 nM. Besides, the results for the inhibitory constant (Ki) on LRRK2 WT [2] and on LRRK2[G2019S] [3] were ≤ 10 nM and ≤ 5 nM, respectively. The IC50 at LRRK2 WT [4] and against LRRK2[G2019S] [5] was ≤ 50 nM throughout.

For `Cn1nc(-c2n[nH]c3ccc(OC4(C)CC4)cc23)cc(N2CCC3(CCC3)C2)c1=O` [Compound 56, 4-(6-azaspiro[3.4]octan-6-yl)-2-methyl-6-[5-(1-methylcyclopropoxy)-1H-indazol-3-yl]pyridazin-3-one], the CC50 at 3 days in data set [1] is > 10000 nM. The values for the Ki at LRRK2 WT [2] and on LRRK2[G2019S] [3] were ≤ 10 nM and ≤ 5 nM, respectively. Moreover, the IC50 against LRRK2 WT [4] and on LRRK2[G2019S] [5] was ≤ 50 nM throughout.

Regarding `CC1CCN(c2cc(-c3n[nH]c4ccc(OC(C)C)cc34)cnn2)C1` (centres unmarked) [Compound 3, 5-isopropoxy-3-[6-(3-methylpyrrolidin-1-yl)pyridazin-4-yl]-1H-indazole], the CC50 at 3 days in data set [1] was > 10000 nM. Moreover, the Ki was ≤ 10 nM at LRRK2 WT [2] and ≤ 5 nM on LRRK2[G2019S] [3]. Besides, the IC50 on LRRK2 WT [4] and against LRRK2[G2019S] [5] was ≥ 100 nM in each case.

As for `Cn1nc(-c2n[nH]c3ccc(OC4(C)CC4)cc23)cc(N2CC(C)(C)C3COCC32)c1=O` (centres unmarked) [Compound 48, 4-(3,3-dimethyl-3a,4,6,6a-tetrahydro-2H-furo[3,4-b]pyrrol-1-yl)-2-methyl-6-[5-(1-methylcyclopropoxy)-1H-indazol-3-yl]pyridazin-3-one], the CC50 at 3 days in data set [1] was > 10000 nM. Moreover, the figures for the Ki on LRRK2 WT [2] and at LRRK2[G2019S] [3] were ≤ 10 nM and ≤ 5 nM, respectively. For the same molecule, the half-maximal inhibitory concentration (IC50) at LRRK2 WT [4] and against LRRK2[G2019S] [5] was ≤ 50 nM each time.

As to `Cn1nc(-c2n[nH]c3ccc(OC4(C)CC4)cc23)cc(N2CCOCC3(CC3)C2)c1=O` [Compound 52, 2-methyl-6-[5-(1-methylcyclopropoxy)-1H-indazol-3-yl]-4-(5-oxa-8-azaspiro[2.6]nonan-8-yl)pyridazin-3-one], the CC50 at 3 days in data set [1] was > 10000 nM. In addition, the figures for the Ki on LRRK2 WT [2] and on LRRK2[G2019S] [3] were ≤ 10 nM and ≤ 5 nM, respectively. The IC50 on LRRK2 WT [4] and on LRRK2[G2019S] [5] was ≤ 50 nM each time.

Consider `CC(C)Oc1ccc2[nH]nc(-c3cnnc(N4CCC(O)C4)c3)c2c1` (stereo in doubt) [Compound 2, (R)-1-(5-(5-isopropoxy-1H-indazol-3-yl)pyridazin-3-yl)pyrrolidin-3-ol], for which, in data set [1], the CC50 at 3 days was > 10000 nM. Further, the Ki fell in the range of 10 to 20 nM on LRRK2 WT [2] and 5 to 10 nM on LRRK2[G2019S] [3]. For the same molecule, the IC50 against LRRK2 WT [4] and against LRRK2[G2019S] [5] was ≥ 100 nM each time.

Turning to `CC(C)Oc1ccc2[nH]nc(-c3cc(N4CCOCC4)c(=O)n(C)n3)c2c1` [Compound 14, 6-(5-isopropoxy-1H-indazol-3-yl)-2-methyl-4-morpholino-pyridazin-3-one], the 50% cytotoxic concentration (CC50) at 3 days in data set [1] is > 10000 nM. For the same molecule, the inhibition constant (Ki) was ≤ 10 nM at LRRK2 WT [2] and ≤ 5 nM on LRRK2[G2019S] [3]. The IC50 at LRRK2 WT [4] and against LRRK2[G2019S] [5] was ≥ 100 nM in each case.

Consider `Cn1nc(-c2n[nH]c3ccc(OC4(C)CC4)cc23)cc(N2CCOCC2)c1=O` [Compound 27, 2-methyl-6-[5-(1-methylcyclopropoxy)-1H-indazol-3-yl]-4-morpholino-pyridazin-3-one], for which the CC50 at 3 days in data set [1] was > 27000 nM. In addition, the inhibitory constant (Ki) was ≤ 10 nM on LRRK2 WT [2] and ≤ 5 nM on LRRK2[G2019S] [3]. Moreover, the IC50 against LRRK2 WT [4] and against LRRK2[G2019S] [5] was ≤ 50 nM in each case.

Regarding `CC(C)Oc1ccc2[nH]nc(-c3cc(N4CCCC4)c(=O)n(C)n3)c2c1` [Compound 44, 6-(5-isopropoxy-1H-indazol-3-yl)-2-methyl-4-pyrrolidin-1-yl-pyridazin-3-one], in data set [1], the CC50 at 3 days was > 10000 nM. For the same molecule, the results for the Ki at LRRK2 WT [2] and at LRRK2[G2019S] [3] were ≤ 10 nM and ≤ 5 nM, respectively. Moreover, the IC50 against LRRK2 WT [4] and at LRRK2[G2019S] [5] was ≤ 50 nM each time.
